Assay results: patent publication US6737383B1, “Herbicidal oxadiazolidines” (priority 1999, dated 2004)

Experiments:
[1] = system: bedstraw; assay: Test B pre/postemergence bedstraw; type: in vivo, Galium aparine
In short: (§1)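 Test chemicals in a non-phytotoxic solvent mixture with surfactant were sprayed preemergence onto planted seeds and postemergence onto plants 2 to 18 cm tall (1- to 4-leaf stage). After twelve to sixteen days in a greenhouse, injury was visually rated against untreated controls from 0 (no effect) to 10 (complete control).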

[2] = system: blackgrass; assay: Test B pre/postemergence blackgrass; type: in vivo, Alopecurus myosuroides
In short: as §1

[3] = system: surinam grass; assay: Test B pre/postemergence surinam grass; type: in vivo, Brachiaria decumbens
In short: as §1

[4] = system: cocklebur; assay: Test B pre/postemergence cocklebur; type: in vivo, Xanthium strumarium
In short: as §1

[5] = system: corn; assay: Test B pre/postemergence corn; type: in vivo, Zea mays
In short: as §1

[6] = system: crabgrass; assay: Test B pre/postemergence crabgrass; type: in vivo, Digitaria sanguinalis
In short: as §1

[7] = system: giant foxtail; assay: Test B pre/postemergence giant foxtail; type: in vivo, Setaria faberii
In short: as §1

[8] = system: morningglory; assay: Test B pre/postemergence morningglory; type: in vivo, Ipomoea hederacea
In short: as §1

[9] = system: pigweed; assay: Test B pre/postemergence pigweed; type: in vivo, Amaranthus retroflexus
In short: as §1

[10] = system: rape; assay: Test B pre/postemergence rape; type: in vivo, Brassica napus
In short: as §1

[11] = system: soybean; assay: Test B pre/postemergence soybean; type: in vivo, Glycine max
In short: as §1

[12] = system: sugar beet; assay: Test B pre/postemergence sugar beet; type: in vivo, Beta vulgaris
In short: as §1

[13] = system: velvetleaf; assay: Test B pre/postemergence velvetleaf; type: in vivo, Abutilon theophrasti
In short: as §1

[14] = system: wheat; assay: Test B pre/postemergence wheat; type: in vivo, Triticum aestivum
In short: as §1

[15] = system: wild oat; assay: Test B pre/postemergence wild oat; type: in vivo, Avena fatua
In short: as §1

[16] = system: purple nutsedge; assay: Test B pre/postemergence purple nutsedge; type: in vivo, Cyperus rotundus
In short: as §1

[17] = Preemergence, Rate 62 g/ha, scale 0 to 10 (0 no effect, 10 complete control)
[18] = Preemergence, Rate 125 g/ha, scale 0 to 10 (0 no effect, 10 complete control)
[19] = Preemergence, Rate 250 g/ha, scale of 0 to 10 where 0 is no effect and 10 is complete control
[20] = Preemergence, Rate 500 g/ha, scale 0 to 10 (0 no effect, 10 complete control)
[21] = Rate 500 g/ha, Postemergence, scale 0 to 10, 0 no effect, 10 complete control
[22] = Postemergence, Rate 125 g/ha, scale of 0 to 10 where 0 is no effect and 10 is complete control
[23] = Postemergence, Rate 250 g/ha, scale 0 to 10, 0 no effect, 10 complete control
[24] = Rate 62 g/ha, Postemergence, scale of 0 to 10 where 0 is no effect and 10 is complete control
[25] = Rate 250 g/ha, Postemergence, scale 0 to 10, 0 is no effect, 10 is complete control
[26] = Preemergence, Rate 125 g/ha, 0 is no effect, 10 is complete control
[27] = Preemergence, Rate 125 g/ha, scale of 0 to 10 where 0 is no effect and 10 is complete control
[28] = Preemergence, Rate 250 g/ha, scale 0 (no effect) to 10 (complete control)
[29] = Rate 62 g/ha, Preemergence, scale 0 to 10
[30] = Rate 500 g/ha, Preemergence, scale 0 to 10 (0 no effect, 10 complete control)

COc1ccccc1Cn1c(=O)on(C(=O)N(c2ccccc2)C(C)C)c1=O [Compound 104]
4: Crabgrass plant response rating [6, 22] | Giant foxtail plant response rating [7, 23] | Plant response rating, Giant foxtail [7, 18] | Redroot pigweed plant response rating [9, 20] | Soybean plant response rating [11, 24] | Wheat plant response rating [14, 20] | Plant response rating, Wild oats [15, 19]
6: Bedstraw plant response rating [1, 21] | Plant response rating, Blackgrass [2, 19] | Blackgrass plant response rating [2, 21] | B. signalgrass plant response rating [3, 20] | Sugarbeets plant response rating [12, 20]
7: Blackgrass plant response rating [2, 20] | Redroot pigweed plant response rating [9, 21] | Wild oats plant response rating [15, 20]
5: Blackgrass plant response rating [2, 23] | Plant response rating, B. signalgrass [3, 19] | Crabgrass plant response rating [6, 23] | Soybean plant response rating [11, 22] | Plant response rating, Soybean [11, 25] | Soybean plant response rating [11, 21]
10: Plant response rating, Giant foxtail [7, 19] | Giant foxtail plant response rating [7, 20] | Morningglory plant response rating [8, 22] | Morningglory plant response rating [8, 23] | Morningglory plant response rating [8, 24] | Morningglory plant response rating [8, 21]
2: Cocklebur plant response rating [4, 23] | Corn plant response rating [5, 20] | Rape plant response rating [10, 21] | Wild oats plant response rating (0 to 10 scale) [15, 26] | Wild oats plant response rating [15, 21]
9: Crabgrass plant response rating [6, 20]
0: Bedstraw plant response rating [1, 17] | Plant response rating, Bedstraw [1, 18] | Plant response rating, Bedstraw [1, 19] | Bedstraw plant response rating [1, 20] | Blackgrass plant response rating [2, 22] | Blackgrass plant response rating [2, 17] | Blackgrass plant response rating [2, 24] | B. signalgrass plant response rating ([3]; Postemergence, Rate 62 g/ha, scale 0 to 10, 0 is no effect, 10 is complete control) | B. signalgrass plant response rating [3, 23] | B. signalgrass plant response rating [3, 17] | Plant response rating, B. signalgrass [3, 18] | B. signalgrass plant response rating ([3]; Rate 125 g/ha, Postemergence, scale 0 to 10, 0 no effect, 10 complete control) | B. signalgrass plant response rating ([3]; Rate 500 g/ha, Postemergence, scale of 0 to 10 where 0 is no effect and 10 is complete control) | Cocklebur plant response rating [4, 22] | Plant response rating, Cocklebur [4, 18] | Plant response rating, Cocklebur [4, 19] | Cocklebur plant response rating [4, 20] | Cocklebur plant response rating [4, 24] | Corn plant response rating [5, 22] | Corn plant response rating [5, 23] | Corn plant response rating [5, 17] | Plant response rating, Corn [5, 18] | Plant response rating, Corn [5, 19] | Corn plant response rating [5, 24] | Corn plant response rating [5, 21] | Crabgrass plant response rating [6, 17] | Plant response rating, Crabgrass [6, 18] | Crabgrass plant response rating [6, 24] | Giant foxtail plant response rating [7, 17] | Morningglory plant response rating [8, 17] | Plant response rating, Morningglory [8, 18] | Plant response rating, Morningglory [8, 19] | Morningglory plant response rating [8, 20] | Redroot pigweed plant response rating [9, 17] | Plant response rating, Redroot pigweed [9, 18] | Plant response rating, Redroot pigweed [9, 19] | Rape plant response rating [10, 22] | Rape plant response rating [10, 23] | Rape plant response rating [10, 17] | Plant response rating, Rape [10, 18] | Plant response rating, Rape [10, 19] | Rape plant response rating [10, 20] | Rape plant response rating [10, 24] | Soybean plant response rating [11, 17] | Plant response rating, Soybean [11, 18] | Plant response rating, Soybean [11, 19] | Soybean plant response rating [11, 20] | Sugarbeets plant response rating [12, 17] | Sugarbeets plant response rating (0 to 10 scale) [12, 26] | Sugarbeets plant response rating [12, 24] | Velvetleaf plant response rating [13, 22] | Velvetleaf plant response rating [13, 17] | Velvetleaf plant response rating (0 to 10 scale) [13, 26] | Plant response rating, Velvetleaf [13, 19] | Velvetleaf plant response rating [13, 20] | Velvetleaf plant response rating [13, 24] | Wheat plant response rating [14, 22] | Wheat plant response rating [14, 17] | Wheat plant response rating (0 to 10 scale) [14, 26] | Plant response rating, Wheat [14, 19] | Wheat plant response rating [14, 24] | Plant response rating, Wheat [14, 25] | Wheat plant response rating [14, 21] | Wild oats plant response rating [15, 22] | Wild oats plant response rating [15, 17] | Wild oats plant response rating [15, 24] | Plant response rating, Wild oats [15, 25] | Nutsedge plant response rating [16, 22] | Nutsedge plant response rating [16, 23] | Nutsedge plant response rating [16, 17] | Plant response rating, Nutsedge [16, 18] | Plant response rating, Nutsedge [16, 19] | Nutsedge plant response rating [16, 20] | Nutsedge plant response rating [16, 24] | Nutsedge plant response rating [16, 21]
8: Crabgrass plant response rating [6, 21] | Giant foxtail plant response rating [7, 21]
3: Plant response rating, Blackgrass [2, 18] | Cocklebur plant response rating [4, 21] | Giant foxtail plant response rating [7, 22] | Giant foxtail plant response rating [7, 24] | Redroot pigweed plant response rating [9, 22] | Plant response rating, Redroot pigweed [9, 25] | Sugarbeets plant response rating [12, 21] | Plant response rating, Velvetleaf [13, 25] | Velvetleaf plant response rating [13, 21]
1: Plant response rating, Crabgrass [6, 19] | Redroot pigweed plant response rating [9, 24] | Sugarbeets plant response rating [12, 22] | Plant response rating, Sugarbeets [12, 19] | Plant response rating, Sugarbeets [12, 25]

COCC(OC)n1c(=O)on(C(=O)N(c2ccc(F)cc2F)C(C)C)c1=O (stereo not drawn) [Compound 738]
5: Plant response rating, Rape [10, 27] | Wheat plant response rating [14, 28]
8: Blackgrass plant response rating [2, 29] | Crabgrass plant response rating [6, 29] | Giant foxtail plant response rating [7, 29] | Redroot pigweed plant response rating [9, 28] | Redroot pigweed plant response rating [9, 30] | Rape plant response rating [10, 30] | Sugarbeets plant response rating [12, 30] | Velvetleaf plant response rating [13, 30] | Wheat plant response rating [14, 30] | Nutsedge plant response rating [16, 30]
7: Corn plant response rating [5, 28] | Plant response rating, Redroot pigweed [9, 27]
10: Plant response rating, Blackgrass [2, 27] | Blackgrass plant response rating [2, 28] | Blackgrass plant response rating [2, 30] | B. signalgrass plant response rating [3, 28] | B. signalgrass plant response rating [3, 30] | Crabgrass plant response rating [6, 30] | Giant foxtail plant response rating [7, 28] | Giant foxtail plant response rating [7, 30] | Wild oats plant response rating [15, 28] | Wild oats plant response rating [15, 30]
4: Plant response rating, Corn [5, 27] | Morningglory plant response rating [8, 30] | Plant response rating, Wheat [14, 27] | Wild oats plant response rating [15, 29] | Nutsedge plant response rating [16, 28]
3: Sugarbeets plant response rating [12, 29]
1: Plant response rating, Morningglory [8, 27] | Morningglory plant response rating [8, 29] | Plant response rating, Velvetleaf [13, 27]
6: B. signalgrass plant response rating ([3]; Preemergence, Rate 62 g/ha, scale of 0 to 10 where 0 is no effect and 10 is complete control) | Redroot pigweed plant response rating [9, 29] | Rape plant response rating [10, 28] | Plant response rating, Sugarbeets [12, 27] | Sugarbeets plant response rating [12, 28] | Velvetleaf plant response rating [13, 28]
2: Morningglory plant response rating [8, 28] | Rape plant response rating [10, 29] | Wheat plant response rating [14, 29]
0: Plant response rating, Bedstraw [1, 27] | Bedstraw plant response rating [1, 28] | Bedstraw plant response rating [1, 29] | Bedstraw plant response rating [1, 30] | Plant response rating, Cocklebur [4, 27] | Cocklebur plant response rating [4, 28] | Cocklebur plant response rating [4, 29] | Cocklebur plant response rating [4, 30] | Corn plant response rating [5, 29] | Plant response rating, Soybean [11, 27] | Soybean plant response rating [11, 28] | Soybean plant response rating [11, 29] | Soybean plant response rating [11, 30] | Velvetleaf plant response rating [13, 29]
9: Plant response rating, B. signalgrass [3, 27] | Corn plant response rating [5, 30] | Plant response rating, Crabgrass [6, 27] | Crabgrass plant response rating [6, 28] | Plant response rating, Giant foxtail [7, 27] | Plant response rating, Wild oats [15, 27]
